Laboratory results reported in patent US4782081A, “Compounds and methods useful for the synthesis of thromboxane A2” (priority 1986, dated 1988).
Where “and” joins values, the source holds several entries; their conditions need not be identical. Equal entries are not always repeated. Entries after “also recorded” stand apart in the source; their conditions may differ. Structures can show the parent of a compound that is named as a salt.

Tests used:
[1] = biological activity (biological properties of TXA2) in a variety of assays
Description: (§1) TXA2 S was also prepared by saponifiction of H2 (X=H) with Me3 SiOK (10) in tetrahydrofuran and isolated as an amorphous solid by solvent evaporation.

platelets = test: inhibition of TXA2 S induced platelet aggregation; assay type: cell-based, human
human neutrophils = test: aggregation of human neutrophils; assay type: cell-based
[2] = chemical stability and storage stability; assay type: physicochemical
Description: The salts of TXA2 were stable for more than one week when stored at -20 C. either as isolated solids or in basic methanol or tetrahydrofuran solution.
To a vile containing 1 mg (0.003 mmol) H1 in 0.050 ml (d4 -)methanol was immediately added 0.0025 ml of a 0.12M solution of NaOH(D) in (D)H2 O under nitrogen. […] Such solutions were diluted and used for biological testing and could be stored for at least a week at -20° C. without significant loss in biological activity.
as §1

[3] = tested on: thromboxane synthetase or cyclooxygenase
[4] = half-life in Krebs solution at 37° C. (bioassay on vascular tissue); assay type: physicochemical; details: leading to TXB2
Description: Radioimmunoassay determinations of hydrolyzed TXA2 yielded values of 84±21, 60±16, 39±11, and 25±8 picograms TXB2 (mean±S.D at 95% confidence, n=3) which correspond with predicted values of 125, 62, 31, and 15 picograms, respectively. The half-life of TXA2 S at 37° C. in Krebs solution measured by bioassay on vascular tissue was 30 seconds which compares very closely with previously reported half-lives for biologically generated material. (1, 12)

[5] = tested on: human platelet rich plasma (PRP); test: aggregation of human platelet rich plasma (PRP); assay type: cell-based
Text: (§2) TXA2 S at concentrations of 16-100 nanograms/ml caused a concentration-dependent aggregation of human platelet rich plasma (PRP). Irreversible aggregation occurred with 50-100 nanograms TXA2 S/ml for all cases examined. […] These comparative potencies concur with published data. […] The aggregatory effects of TXA2 S were confined to platelets.

[6] = tested on: vascular tissue (rabbit aorta, pulmonary, mesenteric, celiac arteries and bovine coronary arteries); test: contraction of Krebs superfused vascular tissue; assay type: cell-based; details: for constriction of vascular tissue versus natural TXA2 / contraction of vascular tissue: rabbit aorta, pulmonary; for constriction of vascular tissue versus natural TXA2: mesenteric and celiac arteries; for contraction of vascular tissue: mesenteric, celiac arteries and bovine coronary arteries
Description: (§3) On most tissues 2-3 ng of TXA2 S was the threshold dose for contraction, generating more than 2 g of tension with rabbit aorta and 4 g of tension with bovine coronary arteries.

[7] = tested on: rabbit mesenteric arteries; test: response of rabbit mesenteric arteries; assay type: cell-based
Description: as §3

bovine coronary arteries = test: contraction of Krebs superfused bovine coronary arteries; assay type: cell-based; details: threshold dose 2-3 ng
Description: as §3

leukotriene B4 = test: stimulation of leukotriene B4 formation; assay type: cell-based, human; details: 2 ug/ml
rabbit celiac arteries [8] = test: response of rabbit celiac arteries; assay type: cell-based
Description: as §3

rabbit aorta = test: contraction of Krebs superfused rabbit aorta; assay type: cell-based; details: threshold dose 2-3 ng
Description: as §3

in vitro = in vitro ADME; details: human, plasma
Text: as §2

rabbit celiac arteries [9] = details: ref (19); cited from earlier work
[10] = tested on: rabbit mesenteric arteries; details: ref (19); cited from earlier work
[11] = 37° C., pH 7.4; refs (1,3); cited from earlier work
[12] = indirect methods; refs (14), (15); listed as biologically generated material; cited from earlier work
[13] = tested on: vascular tissue (rabbit aorta, pulmonary, mesenteric, celiac arteries and bovine coronary arteries); details: generated by platelets or a partially purified platelet enzyme; cited from earlier work

CCCCC[C@H](O)/C=C/[C@H]1O[C@H]2C[C@H](O2)[C@@H]1C/C=C\CCCC(=O)O [A, Thromboxane A2]
biological assays versus platelet-derived TXA2 [1]: indistinguishable from platelet-derived TXA2

CCCCCCC=CC1C2CC(N=N2)C1CC=CCCCC(=O)O (stereo not drawn) [Compound U-51605, 9,11-diazo-prosta-5,13-dienoic acid]
TXA2-induced aggregation (platelets; inhibitor at 1-3 ug/ml): inhibited TXA2 -induced aggregation in a concentration-dependent manner

CCCCCCC=CC1C2CC(NO2)C1CC=CCCCC(=O)O (stereo not drawn) [Compound U-54701, 9,11-iminoepoxy-prosta-5,13-dienoic acid]
platelet aggregation induced by TXA2 S (platelets; inhibitor at 5-15 ug/ml): no effect

CCCCCC(O)C=CC1OC2CC(O2)C1CC=CCCCC(=O)O (stereo not drawn) [sodium salt of A, Thromboxane A2 Sodium]
aggregation of neutrophils (human neutrophils): not neutrophils | storage without significant loss in biological activity ([2]; -20° C., methanol/water saponification solution): at least a week | resistance to inhibition by selective thromboxane synthetase or cyclooxygenase inhibitors versus natural TXA2 [3]: indistinguishable from natural TXA2 | half-life in Krebs medium/solution [4]: 30 s | comparative potency in aggregating human platelets versus natural TXA2 [5]: indistinguishable from natural TXA2 | constriction of vascular tissue versus natural TXA2 [6]: indistinguishable from natural TXA2 | biological activity [1]: marked activity

CCCCCC1C=CC2OC3CC(O3)C2CC=CCCCC(=O)O1 (stereo not drawn) [Compound H2, 1,15-Anhydro Thromboxane A2]
biological activity [1]: did not show the biological properties of TXA2; also recorded: biologically inactive

CCCCC[C@H](O)/C=C/[C@H]1O[C@H]2C[C@H](O2)[C@@H]1C/C=C\CCCC(=O)O [TXA2 S, Thromboxane A2]
response of rabbit mesenteric arteries [7]: only constriction | aggregation of human neutrophils (human neutrophils; 2 ug/ml): did not aggregate human neutrophils | tension generated, bovine coronary arteries (bovine coronary arteries): > 4 g | storage without significant loss in activity ([2]; -20° C., basic saponification solutions): up to a week | stability in basic saponification solutions ([2]; basic saponification solutions): relatively stable | stability in neutral or acidic solutions ([2]; neutral or acidic solutions): rapid decomposition | half-life ([4]; krebs medium): 30 s | stimulation of formation of leukotriene B4 (leukotriene B4): nor did it stimulate formation of leukotriene B4 | concentration causing concentration-dependent aggregation of human PRP [5]: 16-100 nanograms/ml | potency relative to PGH2 at inducing aggregation of human PRP [5]: approximately 10 times | concentration causing irreversible aggregation ([5]; all cases examined): 50-100 nanograms/ml | response of rabbit celiac arteries (rabbit celiac arteries [8]): only constriction | tension generated, rabbit aorta (rabbit aorta): more than 2 g | potency versus biologically produced TXA2 ([6]; TXA2 calculated from PGH2 originally in the incubation, assuming 100% conversion): compared well with the activity of biologically produced TXA2 | contraction of vascular tissue [6]: contracted all vascular tissue tested | biological activity [1]: did exhibit biological properties | biological activity after hydrolysis ([1]; 0.1M phosphate buffer, pH 7.4): eliminated its biological activity | half-life (in vitro): 234 s

CCCCC[C@H](O)/C=C/[C@@H]1[C@@H](C/C=C\CCCC(=O)O)[C@@H]2C[C@H]1OO2 [PGH2]
response of rabbit celiac arteries to PGH2 (rabbit celiac arteries [9]): small, short-lived contraction, followed by larger, longer lasting relaxation | response of rabbit mesenteric arteries to PGH2 [10]: small, short-lived contraction, followed by larger, longer lasting relaxation

CCCCC[C@H](O)/C=C/[C@H]1O[C@H]2C[C@H](O2)[C@@H]1C/C=C\CCCC(=O)O [TXA2, thromboxane A2]
response of rabbit mesenteric arteries [7]: only constriction | T1/2 in aqueous Krebs medium [11]: 32 s | half-life in plasma, biologically generated material [12]: 3 minutes and 5-6 minutes | hydrolysis to TXB2 ([2]; aqueous high salt, neutral pH buffers): rapidly hydrolyzed to TXB2 | stability at high pH ([2]; high pH): appreciably enhanced at high pH | vascular contracting activity [13]: potent vaxcular contracting activity | response of rabbit celiac arteries (rabbit celiac arteries [8]): only constriction | contraction of vascular tissue [6]: contracted all vascular tissue tested

CCCCCC(O)C=CC1OC2CC(O2)C1CC=CCCCC(=O)O (stereo not drawn) [free acid]
stability of free acid in aprotic solvents ([2]; deuterochloroform, elimination to the enol ether): underwent elimination to the corresponding enol ether over the course of several hours

CCCCCC(O)C=CC1OC2CC(O2)C1CC=CCCCC(=O)O (stereo not drawn) [potassium salt of A, Thromboxane A2 Potassium]
aggregation of neutrophils (human neutrophils): not neutrophils | resistance to inhibition by selective thromboxane synthetase or cyclooxygenase inhibitors versus natural TXA2 [3]: indistinguishable from natural TXA2 | half-life in Krebs medium/solution [4]: 30 s | comparative potency in aggregating human platelets versus natural TXA2 [5]: indistinguishable from natural TXA2 | constriction of vascular tissue versus natural TXA2 [6]: indistinguishable from natural TXA2
